Laboratory results from ChEMBL document CHEMBL4007434, “Indazole-Based Covalent Inhibitors To Target Drug-Resistant Epidermal Growth Factor Receptor” (J Med Chem, 2017).
pEC50, pIC50, pKi: −log10 of the molar value. Activity calls are given as the source filed them. The calls are words filed in the database; no cut-off is given here.

Tests used:
[1] = target: T1, Epidermal growth factor receptor (Homo sapiens, UniProt P00533); format: ADME
[2] = target: T2, Epidermal growth factor receptor (Homo sapiens, UniProt P00533, L858R)
[3] = target: T3, Epidermal growth factor receptor (Homo sapiens, UniProt P00533, L858R/T790M)
[4] = target: T1, Epidermal growth factor receptor; assay: Inhibition of wild-type EGFR in human A431 cells assessed as reduction in cell viability after 96 hrs by CellTiterGlo assay; format: ADME, cell-based
[5] = Inhibition of KRAS mutant in human A431 cells assessed as reduction in cell viability after 96 hrs by CellTiterGlo assay; format: cell-based; settings: A-431, 96 h
[6] = Inhibition of KRAS mutant in human H358 cells assessed as reduction in cell viability after 96 hrs by CellTiterGlo assay; format: cell-based; settings: NCI-H358, 96 h
[7] = tested on: Epidermal growth factor receptor (Homo sapiens), P00533 [T790M]; assay: Binding affinity to EGFR T790M mutant (unknown origin) assessed as covalent adduct formation at 100 uM after 1 hr by ESI-MS analysis
[8] = target: T1, Epidermal growth factor receptor; assay: Ratio of Kinact to Ki for reversible inhibition of wild-type human N-terminal GST-tagged EGFR cytoplasmic domain (669 to 1210 end amino acid residues) expressed in baculovirus expression system
[9] = tested on: Epidermal growth factor receptor (Homo sapiens), P00533 [L858R,T790M,C797S]; assay: Inhibition of EGFR L858R/T790M/C797S triple mutant (unknown origin) by HTRF assay
Liver [10] = assay: Stability in human liver microsomes at 3 uM up to 50 mins by LCMS analysis; format: ADME, microsome
Liver [11] = assay: Stability in mouse liver microsomes at 3 uM up to 50 mins by LCMS analysis; format: ADME, microsome
[12] = Stability in human plasma assessed as compound remaining at 5 uM after 1 hr by LCMS analysis; format: ADME, cell-free; settings: read-out: Stability
[13] = Stability in mouse plasma assessed as compound remaining at 5 uM after 1 hr by LCMS analysis; format: ADME, cell-free; settings: read-out: Stability
[14] = target: T1, Epidermal growth factor receptor; assay: Reversible inhibition of wild-type human N-terminal GST-tagged EGFR cytoplasmic domain (669 to 1210 end amino acid residues) expressed in baculovirus expression system using TK peptide substrate preincubated for 2 to 90 mins followed by 6-fold dilution
[15] = target: T2, Epidermal growth factor receptor; assay: (§1) Reversible inhibition of human N-terminal GST-tagged EGFR L858R mutant cytoplasmic domain (669 to 1210 end amino acid residues) expressed in baculovirus expression system using TK peptide substrate preincubated for 2 to 90 mins followed by 6-fold dilution
[16] = target: T3, Epidermal growth factor receptor; assay: Reversible inhibition of human N-terminal GST-tagged EGFR L858R/T790M double mutant cytoplasmic domain (669 to 1210 end amino acid residues) expressed in baculovirus expression system using TK peptide substrate preincubated for 2 to 90 mins followed by 6-fold dilution
[17] = target: T1, Epidermal growth factor receptor; assay: Reversible inhibition of wild-type human N-terminal GST-tagged EGFR cytoplasmic domain (669 to 1210 end amino acid residues) expressed in baculovirus expression system using TK peptide substrate assessed as inactivation constant preincubated for 2 to 90 mins followed by 6-fold dilution
[18] = tested on: Epidermal growth factor receptor (Homo sapiens), P00533 [L858R,T790M]; assay: (§2) Inhibition of EGF-induced EGFR L858R/T790M double mutant phosphorylation in human NCI-H1975 cells pre-incubated for 1 hr followed by EGF stimulation for 30 mins by Western blot analysis; format: cell-based
[19] = target: T3, Epidermal growth factor receptor; assay: as §2; format: cell-based
[20] = tested on: Epidermal growth factor receptor (Homo sapiens), P00533 [L858R,T790M]; assay: Inhibition of EGFR L858R/T790M double mutant in human NCI-H1975 cells assessed as reduction in EGF-induced Akt phosphorylation at S473 at 0.1 to 10 uM pre-incubated for 1 hr followed by EGF stimulation for 30 mins by Western blot analysis; format: cell-based
[21] = target: T1, Epidermal growth factor receptor; assay: Inhibition of EGF-induced wild-type EGFR phosphorylation in human A431 cells at 10 uM pre-incubated for 1 hr followed by EGF stimulation for 30 mins by Western blot analysis; format: cell-based; settings: 0.5 h
[22] = tested on: Epidermal growth factor receptor (Homo sapiens), P00533 [L858R]
[23] = tested on: Epidermal growth factor receptor (Homo sapiens), P00533 [L858R,T790M]
[24] = tested on: Epidermal growth factor receptor (Homo sapiens), P00533 [L858R]; assay: as §1
[25] = Ratio of EC50 for wild-type EGFR in human A431 cells to EC50 for EGFR delE746_A750 mutant in human HCC827 cells
[26] = Ratio of EC50 for wild-type EGFR in human A431 cells to EC50 for EGFR L858R/T790M double mutant in human NCI-H1975 cells
[27] = Ratio of IC50 for wild-type human N-terminal GST-tagged EGFR cytoplasmic domain (669 to 1210 end amino acid residues) expressed in baculovirus expression system to IC50 for human N-terminal GST-tagged EGFR L858R/T790M double mutant cytoplasmic domain (669 to 1210 end amino acid residues) expressed in baculovirus expression system
[28] = target: T3, Epidermal growth factor receptor; assay: Inhibition of EGFR L858R/T790M double mutant in human NCI-H1975 cells assessed as reduction in EGF-induced Akt phosphorylation at S473 pre-incubated for 1 hr followed by EGF stimulation for 30 mins by Western blot analysis; format: cell-based
[29] = target: T1, Epidermal growth factor receptor; assay: Inhibition of EGF-induced wild-type EGFR phosphorylation in human A431 cells pre-incubated for 1 hr followed by EGF stimulation for 30 mins by Western blot analysis; format: cell-based
[30] = target: T1, Epidermal growth factor receptor; assay: Inhibition of wild-type EGFR in human A431 cells assessed as reduction in EGF-induced Akt phosphorylation at S473 pre-incubated for 1 hr followed by EGF stimulation for 30 mins by Western blot analysis; format: cell-based

| Compound | pIC50 [1] | pIC50 [2] | pIC50 [3] | pEC50 [4] | further results |
| --- | --- | --- | --- | --- | --- |
| C=CC(=O)Nc1cc(Nc2n[nH]c3cc(-c4cccnc4)ccc23)c(OC)cc1N(C)CCN(C)C | 7.01 | 7.54 | 7.82 | 5.25 |  |
| C=CC(=O)Nc1cc(Nc2n[nH]c3cc(-c4cn(C)c5ccccc45)ccc23)c(OC)cc1N(C)CCN(C)C | 8.03 | 8.82 | 8.32 | 5.66 | pEC50 [5]: 5.68; pEC50 [6]: 5.59; Activity [7]: Active; kinact/KI [8]: 20000 M⁻¹ s⁻¹; inhibition [9]: inactive; Stability (Liver [10]): Stable; Stability (Liver [11]): Stable; remaining at 1 h, 5 µM [12]: > 75%; remaining at 1 h, 5 µM [13]: > 90%; pKi [14]: 6.63; pKi [15]: 7.24; pKi [16]: 6.83; kinact [17]: 0.00467 s⁻¹; inhibition [18]: Dose-dependent effect; pEC50 [19]: 6.00 to 7.00; inhibition [20]: Active; inhibition (INH) [21]: Active; Kinact [22]: 0.14 min⁻¹; Kinact [23]: 0.37 min⁻¹ |
| C=CC(=O)Nc1cc(Nc2n[nH]c3cc(-c4ccncc4)ccc23)c(OC)cc1N(C)CCN(C)C | 7.52 | 7.85 | 8.30 | 5.40 | Activity [7]: Active; inhibition [9]: inactive; Stability (Liver [10]): Stable; Stability (Liver [11]): Stable; remaining at 1 h, 5 µM [12]: > 75%; remaining at 1 h, 5 µM [13]: > 90%; inhibition [24]: Active |
| C=CC(=O)Nc1cc(Nc2n[nH]c3cc(-c4cccc(N(C)C)c4)ccc23)c(OC)cc1N(C)CCN(C)C | 7.32 | 8.00 | 7.66 | 5.46 |  |
| C=CC(=O)Nc1cc(Nc2n[nH]c3cc(-c4ccc5ccccc5c4)ccc23)c(OC)cc1N(C)CCN(C)C | 6.51 | 7.60 | 7.07 | 5.78 |  |
| C=CC(=O)Nc1cc(Nc2n[nH]c3cc(-c4cccc(F)c4)ccc23)c(OC)cc1N(C)CCN(C)C | 8.30 | 8.80 | 8.30 | 5.64 |  |
| C=CC(=O)Nc1cc(Nc2n[nH]c3ccc(-c4cccc5ccccc45)cc23)c(OC)cc1N(C)CCN(C)C | 7.48 | 7.92 | 8.57 | 5.56 |  |
| C=CC(=O)Nc1cc(Nc2n[nH]c3cc(-c4ccc(N(C)C)cc4)ccc23)c(OC)cc1N(C)CCN(C)C | 6.41 | 7.10 | 7.14 | 5.85 |  |
| C=CC(=O)Nc1cc(Nc2n[nH]c3cc(-c4cccc(C(F)(F)F)c4)ccc23)c(OC)cc1N(C)CCN(C)C | 7.80 | 8.35 | 7.42 | 5.45 |  |
| C=CC(=O)Nc1cc(Nc2n[nH]c3ccc(-c4ccc(F)cc4)cc23)c(OC)cc1N(C)CCN(C)C | 8.17 | 8.70 | > 9.00 | 5.68 | Ratio EC50 [25]: 3 - 4; Activity [7]: Active; inhibition [9]: inactive; Stability (Liver [10]): Stable; Stability (Liver [11]): Stable; remaining at 1 h, 5 µM [12]: > 75%; remaining at 1 h, 5 µM [13]: > 90%; inhibition [24]: Active; Ratio EC50 [26]: 3 - 4; inhibition [18]: Dose-dependent effect; pEC50 [19]: 6.00 to 7.00; inhibition [20]: Active; inhibition (INH) [21]: Active |
| C=CC(=O)Nc1cc(Nc2n[nH]c3cc(-c4ccc(F)cc4)ccc23)c(OC)cc1N(C)CCN(C)C | 7.59 | 8.07 | 8.00 | 5.66 |  |
| CCC(=O)Nc1cc(Nc2n[nH]c3ccccc23)c(OC)cc1N(C)CCN(C)C | < 5.00 | < 5.00 | < 5.00 | < 4.52 |  |
| CCC(=O)Nc1cc(Nc2n[nH]c3ccccc23)ccc1N(C)CCN(C)C | < 5.00 | 5.07 | 5.01 | < 4.52 |  |
| C=CC(=O)Nc1cc(Nc2n[nH]c3cc(-c4cncc5ccccc45)ccc23)c(OC)cc1N(C)CCN(C)C | 8.55 | 8.96 | 8.22 | 5.55 | pEC50 [5]: 6.18 |
| C=CC(=O)Nc1cc(Nc2n[nH]c3ccccc23)ccc1N(C)CCN(C)C | < 5.00 | < 5.00 | 5.58 | 5.22 |  |
| C=CC(=O)Nc1cc(Nc2n[nH]c3ccccc23)c(OC)cc1N(C)CCN(C)C | 5.03 | 5.47 | 6.34 | 4.98 |  |
| C=CC(=O)Nc1cc(Nc2n[nH]c3ccc(-c4ccc5ccccc5c4)cc23)c(OC)cc1N(C)CCN(C)C | 8.09 | 8.66 | 8.96 | 5.75 | Ratio IC50 [27]: 8; Activity [7]: Active; kinact/KI [8]: 20000 M⁻¹ s⁻¹; inhibition [9]: inactive; Stability (Liver [10]): Stable; Stability (Liver [11]): Stable; remaining at 1 h, 5 µM [12]: > 75%; remaining at 1 h, 5 µM [13]: > 90%; pKi [14]: 6.83; pKi [15]: 6.98; pKi [16]: 7.55; kinact [17]: 0.003 s⁻¹; pEC50 [19]: 5.00 to 6.00; pEC50 [28]: 5.00 to 6.00; pEC50 [29]: 5.00 to 6.00; pEC50 [30]: 5.00 to 6.00; Kinact [22]: 0.14 min⁻¹; Kinact [23]: 0.5 min⁻¹ |
